Source: paper PMC12559800, “A NADH Oxidase Nanozyme Restores Redox Homeostasis to Ameliorate Multi-Organ Aging and Ischemic Cardiomyopathy” (Research, 2025)

Target: T1, CX43 (connexin 43; recombinant human CX43) (Homo sapiens, UniProt P17302)
T1 construct: gene GJA1; recombinant human CX43 from GenScript, immobilised on CM5 chip
Experiment: SPR, Biacore T200, CX43 immobilised on CM5 chip
Assay type: binding

T1 sequence (P17302 2-382): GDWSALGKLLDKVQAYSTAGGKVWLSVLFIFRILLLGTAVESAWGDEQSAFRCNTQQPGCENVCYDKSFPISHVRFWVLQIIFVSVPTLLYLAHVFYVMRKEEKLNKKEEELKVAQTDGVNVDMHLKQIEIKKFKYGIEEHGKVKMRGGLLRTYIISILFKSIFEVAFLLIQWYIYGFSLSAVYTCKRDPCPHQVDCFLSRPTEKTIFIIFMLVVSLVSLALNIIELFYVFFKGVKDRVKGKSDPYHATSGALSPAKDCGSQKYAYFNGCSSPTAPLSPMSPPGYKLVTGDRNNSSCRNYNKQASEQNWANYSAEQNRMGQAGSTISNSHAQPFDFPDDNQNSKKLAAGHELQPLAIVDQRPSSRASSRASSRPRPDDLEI

For `NC(=O)c1ccc[n+]([C@@H]2O[C@H](COP(=O)([O-])OP(=O)(O)OC[C@H]3O[C@@H](n4cnc5c(N)ncnc54)[C@H](O)[C@@H]3O)[C@@H](O)[C@H]2O)c1` [NAD^+], the Kd was 14.2 pM.
